# According to article PMC7243081 (Slas Discovery, 2019):
# Like-named read-outs stand apart in the source and are kept apart here.
# Assays:
# GABAA receptor = conditions: cited from earlier work; for IC50: read-out: reported IC50
# [1] = system: human α1β2γ2L GABAA receptor subunits in L(tk−) cells; conditions: L(tk−) cells stably transfected with human α1β2γ2L; cited from earlier work
# [2] = molecular target: T1, α1, β2, and γ2s subunits of the rat GABAA receptors (HEK-GABA cells) (Rattus norvegicus, UniProt P18508+P62813+P63138); assay: QP-DHM blind agonist screen; format: cell-based
# [3] = molecular target: T1, α1, β2, and γ2s subunits of the rat GABAA receptors (HEK-GABA cells); assay: QP-DHM modulator mode; format: cell-based; conditions: maximum concentration of compound, with GABA at EC30, Fig. 3D
# [4] = system: α1β2γ2 expressed in Xenopus oocytes; conditions: read-out: EC50 as modulator; cited from earlier work
# [5] = molecular target: T1, α1, β2, and γ2s subunits of the rat GABAA receptors (HEK-GABA cells); assay: Whole-cell electrophysiology recording on HEK-GABA cells; format: cell-based; conditions: electrophysiology vs QP-DHM
# [6] = molecular target: GABAA receptor (α1, β2, and γ2s subunits, HEK-GABA) (Rattus norvegicus, UniProt P18508+P62813+P63138); format: cell-based
# Wild-type HEK cells = conditions: patch clamp; cited from earlier work
# [7] = Table 1, dose-response curves of validated hits
# T1 sequence (P62813 28-455): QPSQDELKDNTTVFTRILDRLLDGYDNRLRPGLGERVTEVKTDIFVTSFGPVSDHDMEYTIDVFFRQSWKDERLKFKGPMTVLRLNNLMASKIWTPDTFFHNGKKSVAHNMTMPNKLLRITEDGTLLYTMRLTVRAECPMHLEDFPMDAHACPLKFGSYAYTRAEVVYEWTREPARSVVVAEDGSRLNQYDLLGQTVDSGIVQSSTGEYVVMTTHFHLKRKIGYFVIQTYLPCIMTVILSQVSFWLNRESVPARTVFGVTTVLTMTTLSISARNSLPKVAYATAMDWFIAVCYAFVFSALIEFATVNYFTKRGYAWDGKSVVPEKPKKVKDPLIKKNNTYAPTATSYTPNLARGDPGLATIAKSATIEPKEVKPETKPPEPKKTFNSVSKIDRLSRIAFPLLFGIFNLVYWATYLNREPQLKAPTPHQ
# T1 sequence (P63138 25-474 limits assumed): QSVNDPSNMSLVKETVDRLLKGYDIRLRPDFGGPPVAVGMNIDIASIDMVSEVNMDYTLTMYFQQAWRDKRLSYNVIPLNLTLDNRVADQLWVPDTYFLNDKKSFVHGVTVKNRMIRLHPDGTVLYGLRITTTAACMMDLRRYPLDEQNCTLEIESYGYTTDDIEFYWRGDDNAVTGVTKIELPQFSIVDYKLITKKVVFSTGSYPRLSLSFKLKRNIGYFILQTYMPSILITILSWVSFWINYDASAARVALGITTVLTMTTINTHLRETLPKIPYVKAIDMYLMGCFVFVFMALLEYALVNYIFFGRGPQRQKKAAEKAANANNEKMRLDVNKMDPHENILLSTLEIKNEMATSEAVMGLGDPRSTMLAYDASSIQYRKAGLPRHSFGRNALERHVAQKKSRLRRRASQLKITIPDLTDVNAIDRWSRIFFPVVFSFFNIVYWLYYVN
# T1 sequence (P18508 39-466): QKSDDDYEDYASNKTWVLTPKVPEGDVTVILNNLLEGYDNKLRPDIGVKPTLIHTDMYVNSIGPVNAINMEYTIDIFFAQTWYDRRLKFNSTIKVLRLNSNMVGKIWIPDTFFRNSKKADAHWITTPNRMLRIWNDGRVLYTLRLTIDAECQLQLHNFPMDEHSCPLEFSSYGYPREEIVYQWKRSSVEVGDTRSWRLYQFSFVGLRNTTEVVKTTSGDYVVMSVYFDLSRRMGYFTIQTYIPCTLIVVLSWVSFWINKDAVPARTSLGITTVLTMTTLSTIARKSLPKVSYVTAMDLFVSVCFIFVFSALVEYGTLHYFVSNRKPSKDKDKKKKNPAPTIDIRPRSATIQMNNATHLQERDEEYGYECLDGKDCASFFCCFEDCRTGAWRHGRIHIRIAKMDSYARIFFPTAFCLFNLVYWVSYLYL
# GABAA receptor (α1, β2, and γ2s subunits, HEK-GABA), sequence (P62813 28-455): as the sequence (P62813 28-455) above
# GABAA receptor (α1, β2, and γ2s subunits, HEK-GABA), sequence (P63138 25-474 limits assumed): as the sequence (P63138 25-474 limits assumed) above
# GABAA receptor (α1, β2, and γ2s subunits, HEK-GABA), sequence (P18508 39-466): as the sequence (P18508 39-466) above
compound,measurement,setting,value
CN1CCc2cc3c(cc2[C@H]1[C@@H]1OC(=O)c2c1ccc1c2OCO1)OCO3 [(+)-Bicuculline],IC50,GABAA receptor; in the presence of 3 μM GABA,900 nM
same,IC50,GABAA receptor; in the presence of 10 μM GABA,530 nM
COc1cc2c(c(OC)c1OC)-c1ccc(OC)c(=O)cc1[C@@H](NC(C)=O)CC2 [Colchicine],effect on GABA currents,[1],significantly inhibits GABA currents
NCc1cc(=O)[nH]o1 [Muscimol],EC50,[2],200 nM
same,Amplitude (%),[2]; [7],100%
same,Hill Coefficient,[2]; [7],1.9
CCN(C(C)=O)c1cccc(-c2ccnc3c(C#N)cnn23)c1 [Zaleplon],effect of GABA increased to % of the maximum (GABA at 10 µM),[3],41%
same,EC50,[4],170 nM
CC(=O)OC1CCC2(C)C(CCC3C4CCC(C(C)=O)C4(C)CC(=O)C32)C1 (stereo not drawn),result in blind agonist screen,[2]; natural products collection,negative
Picrotoxin,IC50,GABAA receptor; in the presence of 10 μM GABA,3100 nM
Ivermectin,EC50 with electrophysiology relative to QP-DHM (fold higher),[5],~ 10 ×
same,rise time relative to GABA (times longer),GABAA receptor,about 500 times
"CC[C@]1(O)C[C@@H]2CN(CCc3c([nH]c4ccccc34)[C@@](C(=O)OC)(c3cc4c(cc3OC)N(C)[C@H]3[C@@](O)(C(N)=O)[C@H](O)[C@]5(CC)C=CCN6CC[C@]43[C@@H]65)C2)C1 [STOCK1N-75293, Vindesine]",outcome of hits validation (activity and specificity for the GABAA receptor),[6],marginal effect
NCCCC(=O)O [GABA],electrophysiological response of wild-type HEK cells,Wild-type HEK cells,no electrophysiological response
COc1ccc(-c2ccc(=N)n(CCCC(=O)O)n2)cc1 [Gabazine],IC50,GABAA receptor; in the presence of 3 μM GABA,~200 nM
CC[C@H](C)[C@H]1O[C@]2(C=C[C@@H]1C)C[C@@H]1C[C@@H](C/C=C(\C)[C@@H](O[C@H]3C[C@H](OC)[C@@H](O[C@H]4C[C@H](OC)[C@@H](O)[C@H](C)O4)[C@H](C)O3)[C@@H](C)/C=C/C=C3\CO[C@@H]4[C@H](O)C(C)=C[C@@H](C(=O)O1)[C@]34O)O2 [Avermectin B1a],EC50 with electrophysiology relative to QP-DHM (fold higher),[5],~ 10 ×
same,EC50,[2],6900 nM
same,Amplitude (%),[2]; [7],94%
same,Hill Coefficient,[2]; [7],6.3
same,Amplitude (%),"[2]; Table 2, avermectin family",94%
same,Hill Coefficient,"[2]; Table 2, avermectin family",6.3
